Structures can show the parent of a compound that is named as a salt. Where two headings read alike, the source gives them in different places.
Assays:
[1] = tested on: sensitized Brown Norway rats; assay: Ovalbumin-induced accumulation of inflammatory cells in lung lavage fluid (allergen-induced lung inflammation); type: in vivo, rat; details: p.o., corn oil, lung lavage fluid
Procedure: The ability of a compound to inhibit the allergen-induced accumulation of inflammatory cells such as eosinophils and neutrophils in the lavage fluid obtained from sensitized animals is indicative of that compound's anti-asthma activity. […] The test is conducted as follows.
Male Brown Norway rats are sensitized to ovalbumin by single intraperitoneal injection of 1 mg ovalbumin adsorbed to 100 mg […] (alum) in 1 ml sterile saline (saline control rats receive only sterile saline) on day 1, and allowed to sensitize until day 21. […] Rats are challenged with 0.5% ovalbumin in saline generated using a Devillbis nebulizer for 60 min on day 21.
Forty-eight hrs after challenge, animals are sacrificed with an overdose of intraperitoneally-delivered sodium pentobarbitol and the lungs are lavaged with cold 2×7 ml phosphate buffered saline. The recovered lavage fluid is placed on ice. The bronchoalveolar lavage fluid is centrifuged and the supernatant removed. The pellet is resuspended in phosphate buffered saline at 4° C. Cytospins are prepared and stained for differentiation and enumeration of cell types.
Test compound was administered in 300 μl corn oil (Tables 7 and 8) or water (Table 9), which were used as vehicles. Control animals received 300 μl corn oil or water alone, i.e., no drug. […] A negative value in Table 7, 8, or 9 indicates an exacerbation of the effect over the control animal.

[2] = tested on: Jurkat clone E6.1 cells; assay: Antigen-induced calcium flux in anti-CD3 stimulated Jurkat cells (Fura 2AM); type: cell-based; details: anti-CD3 mAb stimulated Jurkat clone E6.1 cells; for inhibition at 20 µM: Homo sapiens
From the text: Elevation of cytoplasmic calcium concentration is a common and crucial event which follows the activation of many types of cell surface receptors. Increases in intracellular calcium that occur following agonist activation of inositol lipid hydrolysis are the results of calcium release from the endoplasmic reticulum and the influx of calcium through the plasma membrane. Increases in cytosolic calcium concentration are involved in many important cellular responses in the inflammatory process including adhesion, motility, gene expression, proliferation, and degranulation. Changes in intracellular calcium concentrations can affect both short and long term cellular responses. An assay method to evaluate a test compound's impact on calcium flux is provided as follows.
The resulting supernatants are discarded and each pellet is washed in 10 mL HBSS. Cell suspensions are accumulated and centrifuged for 5 minutes at 900 RPM to form a cell pellet. The resulting supernatant is discarded and the pellet is resuspended in HBSS at 1×10^7cells/mL. The cell suspension is transferred to a 20 mm petri dish and incubated at 37° C., 5% CO2 for 20 minutes.
One volume of Fura 2AM is mixed to one volume of detergent Pluronic F127. Cells are labeled with 4 μL of probe solution to each mL of cell suspension. The petri dish is wrapped in aluminum foil to protect from light and placed on a plate shaker for 30 minutes at room temperature.
The following steps are done in the laminar flow hood with the fluorescent lights turned off. The petri dish is removed from the shaker and the labeled cell suspension is transferred to a 15 mL conical tube and washed twice with HBSS as above. The cell pellet is resuspended in 12 mL HBSS and left wrapped in foil for 30 minutes at room temperature. The labeled cell suspension is aliquoted (100 μL/well) into a Dynex 96 well white opaque tissue culture plate. […] Selected compounds were tested for dose related activity. Test samples and activator (anti-CD3 mAb at final concentration of 4 μg/mL, PharMingen) are added manually (50 μL), such that the minimum time to acquire the first data point after stimulation is approximately 30 seconds. The calcium influx response to anti-CD3 mAb is measured as an “end point” assay. The entire plate is read in 100 seconds using a kinetic of 1 second per well.
The plate is read before the addition of anti-CD3 to monitor non-specific effect of samples/drugs. Fluorescence emission is measured at 510 nm with excitation alternating between 340 and 380 every second using an excitation/emission filter pair. Data from these dual wavelengths are represented as a ratio of 2 excitations wavelengths. This ratio is independent of intracellular dye and cell concentrations, enabling real comparison between experiments.

[3] = tested on: Rat Mast Cell Line (RBL-2H3); assay: Antigen-induced release of hexosaminidase from a rat mast cell line (RBL-2H3); type: cell-based; details: tested at 0.3, 3, 10 and 30 μM, read-out: Hex IC50
Procedure: The anti-allergic effects of a compound of the present invention was evaluated by measuring its effect on antigen-induced secretion of hexosaminidase from a passively sensitized rat mast cell line. The ability of a test compound to inhibit the release of mast cell granule contents, e.g., histamine and hexosaminidase, is indicative of the anti-allergy and/or anti-asthma activity of the compound. Hexosaminidase is released from the mast cell granule along with histamine and other mediators during antigen challenge. The test is performed as follows.
RBL-2H3 cells are grown in culture and passively sensitized for 1 hour at 37° C. to dinitrophenol (DNP) using anti-human-DNP (IgE). Cells are incubated with test compound for 30 minutes at 37° C. and stimulated with 0.5 μg/ml DNP-HSA (antigen) for 30 minutes. Aliquots of the supernatant are removed and used to measure the amount of hexosaminidase released during challenge with the antigen. The amount of hexosaminidase present in the supernatant is determined colorimetrically by monitoring the enzymatic metabolism of p-nitrophenyl-N-acetyl-β-D-glucosaminide (p-NAG) over a period of 60 minutes at 405 nm. The effect of each test compound is determined as a percentage of the antigen-induced response (minus background release) obtained in the presence of DMSO alone. These values are used to determine the degrees of inhibition of antigen-induced hexosaminidase release from the cells.

[4] = 5 mg/kg/day for 4 days, relative to control animals
[5] = Jurkat, read-out: Calcium (% inhibition at 20 μM), 20 μM
[6] = Rattus norvegicus, RBL-2H3, inhibition of antigen (DNP-HSA)-induced hexosaminidase release

CC=C1CCC2C3C(CC[C@]12C)[C@@]1(C)CCC(N)CC1[C@@H](O)[C@@H]3O (some centres unmarked) [Compound 49]
% inhibition of eosinophils [1, 4]: 52%

CCC1(C)CCC2=C1CCC1C2C(O)C(O)C2CC(NCc3ccccc3)CCC21C.Cl (centres unmarked) [Compound 147]
% inhibition of eosinophils ([1]; 1 mg/kg/day for 4 days): 40%
% inhibition of lymphocytes ([1]; 1 mg/kg/day for 4 days): 36%
% inhibition of neutrophils ([1]; 1 mg/kg/day for 4 days): 58%

CC=C1CCC2C3C(O)C(O)C4CC(NCCCCC)CCC4(C)C3CCC12C.Cl (centres unmarked) [Compound 115]
Calcium (% inhibition at 20 μM) ([2]; 20 μM): 40.0%

C/C=C1/CCC2C3C(CC[C@]12C)[C@@]1(C)CCC(N2CCCCC2)CC1[C@@H](O)[C@@H]3O (some centres unmarked) [Compound 110]
inhibition at 20 µM [2, 5]: 39.7%
IC50 [3, 6]: 10.9 µM

COc1ccc(CNC2CCC3(C)C(C2)C(O)C(O)C2C4=C(CCC23)C(C)(C)CC4)cc1OC.Cl (centres unmarked) [Compound 142]
% inhibition of lymphocytes ([1]; 1 mg/kg/day for 4 days): −42%
% inhibition of neutrophils ([1]; 1 mg/kg/day for 4 days): −1%

CC=C1CCC2C3C(O)C(O)C4CC(NCCNCCO)CCC4(C)C3CCC12C.Cl.Cl (centres unmarked) [Compound 124]
Calcium (% inhibition at 20 μM) ([2]; 20 μM): 21.0%
% inhibition of eosinophils ([1]; 1 mg/kg/day for 4 days): −55%
% inhibition of lymphocytes ([1]; 1 mg/kg/day for 4 days): −26%
% inhibition of neutrophils ([1]; 1 mg/kg/day for 4 days): −76%

CC=C1CCC2C3C(O)C(O)C4CC(Nc5cccc(C)c5)CCC4(C)C3CCC12C.Cl (centres unmarked) [Compound 125]
Calcium (% inhibition at 20 μM) ([2]; 20 μM): 5.7%

CCC1CCC2C3C(CC[C@]12C)[C@@]1(C)CCC(N)CC1[C@@H](O)[C@@H]3O (some centres unmarked) [Compound 96]
inhibition at 20 µM [2, 5]: 47.9%
% inhibition of eosinophils [1, 4]: −9%
IC50 [3, 6]: 7.8 µM

C=C1CCC2C3C(O)C(O)C4CC(NCc5cccc([N+](=O)[O-])c5)CCC4(C)C3CCC12C (centres unmarked) [Compound 106]
Calcium (% inhibition at 20 μM) ([2]; 20 μM): 8.1%

CCC1CCC2C3C(CC[C@]12C)[C@@]1(C)CCC(N)CC1[C@@H](O)[C@@H]3O (some centres unmarked) [Compound 97]
% inhibition of eosinophils [1, 4]: 40%

C=C1CCC2C3C(CC[C@]12C)[C@@]1(C)CC[C@@H](NC(=O)Nc2ccccc2)CC1[C@@H](O)[C@@H]3O (some centres unmarked) [Compound 137]
inhibition at 20 µM [2, 5]: 13%
IC50 [3, 6]: 14.8 µM

CCC1(C)CCC2=C1CCC1C2C(O)C(O)C2CC(NCc3ccccc3)CCC21C.Cl (centres unmarked) [Compound 146]
% inhibition of eosinophils ([1]; 1 mg/kg/day for 4 days): 8%
% inhibition of lymphocytes ([1]; 1 mg/kg/day for 4 days): −27%
% inhibition of neutrophils ([1]; 1 mg/kg/day for 4 days): 24%

C=C1CCC2C3C(CC[C@]12C)[C@@]1(C)CC[C@@H](NS(=O)(=O)C(C)C)CC1[C@@H](O)[C@@H]3O (some centres unmarked) [Compound 133]
% inhibition of eosinophils ([1]; 1 mg/kg/day for 4 days): −43%
% inhibition of lymphocytes ([1]; 1 mg/kg/day for 4 days): 28%
% inhibition of neutrophils ([1]; 1 mg/kg/day for 4 days): 40%

C=C1CCC2C3C(CC[C@]12C)[C@@]1(C)CCC(N)CC1[C@@H](OC)[C@@H]3OC (some centres unmarked) [Compound 78]
inhibition at 20 µM [2, 5]: 5.3%
IC50 [3, 6]: 20.1 µM

C=C1CCC2C3C(O)C(O)C4CC(NCc5cccc(C(F)(F)F)c5)CCC4(C)C3CCC12C.CC(=O)O (centres unmarked) [Compound 102]
Calcium (% inhibition at 20 μM) ([2]; 20 μM): 9.5%

C=C1CCC2C3C(O)C(O)C4CC(NCc5cccnc5)CCC4(C)C3CCC12C.Cl.Cl (centres unmarked) [Compound 107]
% inhibition of lymphocytes ([1]; 1 mg/kg/day for 4 days): −28%
% inhibition of neutrophils ([1]; 1 mg/kg/day for 4 days): 23%

C[C@]12CC[C@@H](N)CC1[C@@H](O)[C@H](O)[C@@H]1[C@@H]2CC[C@]2(C)C(=O)CC[C@@H]12 (stereo partly drawn) [Compound 70, 3α-amino-6α,7β-dihydroxyandrostan-17-one acetic acid salt]
inhibition at 20 µM ([2]; read-out: Calcium (% inhibition at 20 μM), 20 μM): 7%

COC1C(OC)C2CC(N)CCC2(C)C2CCC3=C(CCC3(C)C)C12.Cl (centres unmarked) [Compound 148]
Calcium (% inhibition at 20 μM) ([2]; 20 μM): 6.6%

C/C=C1/CCC2C3C(CC[C@]12C)[C@@]1(C)CCC(NC)CC1[C@@H](O)[C@@H]3O (some centres unmarked) [Compound 113]
inhibition at 20 µM [2, 5]: 45%
IC50 [3, 6]: 9.8 µM

C[C@]12CCC3C(C1CCC2O)[C@@H](O)[C@H](O)C1CC(N)CC[C@]31C (some centres unmarked) [Compound 72]
inhibition at 20 µM [2, 5]: 10.3%

C=C1CCC2C3C(CC[C@]12C)[C@@]1(C)CC[C@@H](NC(C)=O)CC1[C@@H](O)[C@@H]3O (some centres unmarked) [Compound 131]
inhibition at 20 µM [2, 5]: 9.9%
IC50 [3, 6]: 14.1 µM

CC(F)=C1CCC2C3C(CC[C@]12C)[C@@]1(C)CCC(N)CC1[C@@H](O)[C@@H]3O (some centres unmarked) [Compound 64]
inhibition at 20 µM [2, 5]: 6.7%
% inhibition of eosinophils [1, 4]: 62%
IC50 [3, 6]: 14.4 µM

C=C1CCC2C3C(CC[C@]12C)[C@@]1(C)CCC(N)CC1[C@@H](O)[C@@H]3O (some centres unmarked) [Compound 53]
% inhibition of eosinophils [1, 4]: 24%

C=C1CCC2C3C(CC[C@]12C)[C@@]1(C)CC[C@@H](NCc2ccc(C(C)C)cc2)CC1[C@@H](O)[C@@H]3O (some centres unmarked) [Compound 100]
inhibition at 20 µM [2, 5]: 33.2%
IC50 [3, 6]: 18.2 µM

CCC1(C)CCC2=C1CCC1C2C(O)C(O)C2CC(Nc3cccc(C(F)(F)F)c3)CCC21C.Cl (mixture of isomers) [Compound 145]
Calcium (% inhibition at 20 μM) ([2]; 20 μM): −0.2%

CC(=O)O.CC=C1CCC2C3C(O)C(O)C4CC(NC5CCCC5)CCC4(C)C3CCC12C (centres unmarked) [Compound 116]
Calcium (% inhibition at 20 μM) ([2]; 20 μM): 60.9%

COC(=O)C=C1CCC2C3C(CC[C@]12C)[C@@]1(C)CCC(N)CC1[C@@H](O)[C@@H]3O (some centres unmarked) [Compound 69]
inhibition at 20 µM [2, 5]: 11.2%
IC50 [3, 6]: 21.2 µM

C=C1CCC2C3C(CC[C@]12C)[C@@]1(C)CC[C@@H](NC(=O)NCCC)CC1[C@@H](O)[C@@H]3O (some centres unmarked) [Compound 138]
Calcium (% inhibition at 20 μM) ([2]; 20 μM): 9.0%
% inhibition of eosinophils ([1]; 1 mg/kg/day for 4 days): −52%
% inhibition of lymphocytes ([1]; 1 mg/kg/day for 4 days): 33%
% inhibition of neutrophils ([1]; 1 mg/kg/day for 4 days): 35%

CCC1(C)CCC2=C1CCC1C2C(O)C(O)C2CC(Nc3ccccc3)CCC21C.Cl (mixture of isomers) [Compound 144]
Calcium (% inhibition at 20 μM) ([2]; 20 μM): 13.0%

CC=C1CCC2C3C(O)C(O)C4CC(NCCNCCC)CCC4(C)C3CCC12C (centres unmarked) [Compound 119]
IC50 ([3]; inhibition of antigen (DNP-HSA)-induced hexosaminidase release): 6.1 µM

CC(F)=C1CCC2C3C(CC[C@]12C)[C@@]1(C)CCC(N)CC1[C@@H](O)[C@@H]3O (some centres unmarked) [Compound 95]
% inhibition of eosinophils [1, 4]: 14%

C=C1CCC2C3C(CC[C@]12C)[C@@]1(C)CCC(N)CC1[C@@H](O)[C@@H]3O (some centres unmarked) [Compound 54]
IC50 [3, 6]: 16.1 µM

CC=C1CCC2C3C(O)C(O)C4CC(NCCN(C)C)CCC4(C)C3CCC12C.Cl.Cl (centres unmarked) [Compound 120]
Calcium (% inhibition at 20 μM) ([2]; 20 μM): 44.0%

CC=C1CCC2C3C(O)C(O)C4CC(Nc5ccc(O)cc5)CCC4(C)C3CCC12C.Cl (centres unmarked) [Compound 126]
Calcium (% inhibition at 20 μM) ([2]; 20 μM): 45.0%

Source: patent publication US20040034216A1, “3-Nitrogen-6,7-dioxygen steroids and uses related thereto” (priority 2003, published 2004)
